Results on 64 compounds are retold here after patent publication US20210292340A1, “CELL NECROSIS INHIBITOR, PREPARATION METHOD THEREFOR AND USE THEREOF” (SHANGHAI INSTITUTE OF ORGANIC CHEMISTRY, CHINESE ACADEMY OF …, priority 2018, published 2021).

Structures are written as SMILES. Where only a bound is given, the exact number is not on record here.

For this assay, the system named is Jurkat (FADD−/−) cells. Kind of assay: Inhibition of TNF-induced programmed Jurkat (FADD−/−) cell necrosis (Cell Titer-Glo). It is filed as cell-based, human. Particulars: Homo sapiens, Jurkat, 20 h, TNF 10 ng/mL, intracellular ATP level, read-out: Cellular IC50 (M) Jurkat (FADD−/−). The procedure:
Two replicate wells were set for each concentration of each compound.
Jurkat (FADD^−/−) cells (human-derived peripheral blood leukemia T cell line, with FADD gene knocked out) were cultured in vitro. After growing to logarithmic growth phase, the cells were harvested, and centrifuged at 1000 rpm for 5 min. The supernatant was discarded, and the cells were resuspended in fresh medium and adjusted to a cell density of 5×10^5/mL. The cell suspension was added to the culture plate containing the drug (40 μL per well). In the treatment groups, 10 μL of TNF (tumor necrosis factor, final concentration 10 ng/mL) diluted with the cell culture medium was added to each well, and incubated for 20 h in a cell incubator (37° C., 5% CO2). Subsequently, 50 μL of Cell Titer-Glo solution was added to each well and incubated at room temperature for 10 min. Then, the luminescence was detected on BioTek plate reader to measure the intracellular ATP level. The effect of the test compounds in inhibiting TNF-induced cell necrosis was calculated from the full-activity well and background well (with the untreated DMSO control well as 100% cell viability), and the half inhibitory concentration (IC50) of the compound was calculated by Graphpad Prism statistical software.
For orientation: In ATP-based viability assays light output follows the ATP content of the culture.
As for `CN1C(=O)[C@@H](NC(=O)c2n[nH]c(Cc3ccccc3)n2)COc2ccccc21` [GSK2982772, reference compound], the IC50 worked out at 9.7e-10 M.

In the case of `CN1C(=O)[C@@H](NC(=O)c2n[nH]c(Cc3ccccc3)n2)CSc2cc3[nH]ccc3cc21` [RIP1-001], the IC50 was 1.38e-09 M.

Take `CN1C(=O)[C@@H](NC(=O)c2cc(Cc3ccccc3)on2)CSc2cc3[nH]ccc3cc21` [RIP1-003]: the IC50 was 6.91e-10 M.

As for `CN1C(=O)[C@@H](NC(=O)c2cnn(Cc3ccccc3)c2)CSc2cc3[nH]ccc3cc21` [RIP1-004], the IC50 was found to be 5.63e-08 M.

Turning to `CN1C(=O)[C@@H](NC(=O)c2cncn2Cc2ccccc2)CSc2cc3[nH]ccc3cc21` [RIP1-005], the IC50 was over 2e-06 M.

Turning to `CN1C(=O)[C@@H](NC(=O)c2cn(Cc3ccccc3)cn2)CSc2cc3[nH]ccc3cc21` [RIP1-006], the IC50 is 1.25e-09 M.

On to `CN1C(=O)[C@@H](NC(=O)c2cccc(Cc3ccccc3)c2)CSc2cc3[nH]ccc3cc21` [RIP1-007], for which the IC50 amounted to 3.4e-07 M.

As to `CN1C(=O)[C@@H](NC(=O)c2ncn(Cc3ccccc3)n2)CSc2cc3[nH]ccc3cc21` [RIP1-008], the IC50 is 2.4e-10 M.

With `CN1C(=O)[C@@H](NC(=O)c2cc(Cc3ccccc3)on2)CSc2cc3c(ccn3C)cc21` [RIP1-009], the IC50 came out at 1.08e-09 M.

Consider `CN1C(=O)[C@@H](NC(=O)c2cnn(Cc3ccccc3)c2)CSc2cc3c(ccn3C)cc21` [RIP1-010], for which the IC50 was determined as 9.6e-08 M.

In the case of `CN1C(=O)[C@@H](NC(=O)c2cccc(Cc3ccccc3)c2)CSc2cc3c(ccn3C)cc21` [RIP1-011], the IC50 worked out at 3.24e-07 M.

For the compound `CN1C(=O)[C@@H](NC(=O)c2ncn(Cc3ccccc3)n2)CSc2cc3c(ccn3C)cc21` [RIP1-012], the IC50 stood at 1.22e-09 M.

In the case of `CN1C(=O)[C@@H](NC(=O)c2n[nH]c(Cc3ccccc3)n2)CSc2cc3[nH]ncc3cc21` [RIP1-013], the IC50 is 5.3e-10 M.

In the case of `CN1C(=O)[C@@H](NC(=O)c2cnn(Cc3ccccc3)c2)CSc2cc3[nH]ncc3cc21` [RIP1-014], the IC50 amounted to 2.6e-08 M.

As to `CN1C(=O)[C@@H](NC(=O)c2cn(Cc3ccccc3)cn2)CSc2cc3[nH]ncc3cc21` [RIP1-016], the IC50 worked out at 2.3e-10 M.

As for `CN1C(=O)[C@@H](NC(=O)c2cncn2Cc2ccccc2)CSc2cc3[nH]ncc3cc21` [RIP1-017], the IC50 was over 2e-06 M.

As for `CC(=O)n1ncc2cc3c(cc21)SC[C@H](NC(=O)c1cc(Cc2ccccc2)on1)C(=O)N3C` [RIP1-018], the IC50 was 2.7e-10 M.

Take `CN1C(=O)[C@@H](NC(=O)c2cn(Cc3ccccc3)nn2)CSc2cc3[nH]ncc3cc21` [RIP1-019]: the IC50 was determined as 6.8e-10 M.

In the case of `CN1C(=O)[C@@H](NC(=O)c2ncn(Cc3ccccc3)n2)CSc2cc3[nH]ncc3cc21` [RIP1-020], the IC50 is 2.3e-10 M.

Take `CN1C(=O)[C@@H](NC(=O)c2cn(Cc3ccccc3)cn2)COc2cc3[nH]ncc3cc21` [RIP1-022]: the IC50 is 5.66e-10 M.

In the case of `CN1C(=O)[C@@H](NC(=O)c2nnc(Cc3ccccc3)[nH]2)COc2cc3[nH]ncc3cc21` [RIP1-023], the IC50 was determined as 2.54e-09 M.

With `CN1C(=O)[C@@H](NC(=O)c2cn(Cc3ccccc3)nn2)COc2cc3[nH]ncc3cc21` [RIP1-024], the IC50 came to 2.03e-09 M.

For the compound `CN1C(=O)[C@@H](NC(=O)c2ncn(Cc3ccccc3)n2)COc2cc3[nH]ncc3cc21` [RIP1-025], the IC50 amounted to 2.86e-10 M.

Turning to `CN1C(=O)[C@@H](NC(=O)c2ncn(Cc3ccccc3)n2)CSc2cc3[nH]nc(Cl)c3cc21` [RIP1-026], the IC50 was 2.8e-10 M.

`CN1C(=O)[C@@H](NC(=O)c2cn(Cc3ccccc3)cn2)CSc2cc3[nH]nc(Cl)c3cc21` [RIP1-028]: the IC50 was 7e-11 M.

For the compound `CN1C(=O)[C@@H](NC(=O)c2cc(Cc3ccccc3)on2)CSc2cc3[nH]nc(Cl)c3cc21` [RIP1-029], the IC50 was 1.2e-10 M.

In the case of `CN1C(=O)[C@@H](NC(=O)c2cn(Cc3ccccc3)cn2)CSc2cc3occc3cc21` [RIP1-036], the IC50 worked out at 1.8e-10 M.

Turning to `CN1C(=O)[C@@H](NC(=O)c2ncn(Cc3ccccc3)n2)CSc2cc3occc3cc21` [RIP1-037], the IC50 was determined as 1.29e-10 M.

As to `CN1C(=O)[C@@H](NC(=O)c2cc(Cc3ccccc3)on2)CSc2cc3occc3cc21` [RIP1-038], the IC50 was 1.29e-10 M.

For the compound `CN1C(=O)[C@@H](NC(=O)c2nnc(Cc3ccccc3)[nH]2)CSc2cc3occc3cc21` [RIP1-039], the IC50 came out at 4.5e-10 M.

On to `CN1C(=O)[C@@H](NC(=O)c2cn(Cc3ccccc3)nn2)CSc2cc3occc3cc21` [RIP1-040], for which the IC50 came out at 3.6e-10 M.

For the compound `CN1C(=O)[C@@H](NC(=O)c2nnc(Cc3ccccc3)o2)CSc2cc3[nH]ccc3cc21` [RIP1-041], the IC50 came to 3.79e-10 M.

In the case of `CN1C(=O)[C@@H](NC(=O)c2cn(Cc3ccccc3)nn2)CSc2cc3[nH]ccc3cc21` [RIP1-042], the IC50 came to 1.93e-09 M.

As to `CN1C(=O)[C@@H](NC(=O)c2nnn(Cc3ccccc3)n2)CSc2cc3[nH]ccc3cc21` [RIP1-043], the IC50 came to 1.31e-10 M.

As for `Cc1ccc(Cc2cc(C(=O)N[C@H]3CSc4cc5[nH]ccc5cc4N(C)C3=O)n(C)n2)cc1` [RIP1-044], the IC50 worked out at 1.91e-08 M.

Turning to `Cc1ccc(Cc2cc(C(=O)N[C@H]3CSc4cc5[nH]ccc5cc4N(C)C3=O)nn2C)cc1` [RIP1-045], the IC50 was over 2e-06 M.

In the case of `CN1C(=O)[C@@H](NC(=O)c2cnc(Cc3ccccc3)[nH]2)CSc2cc3[nH]ccc3cc21` [RIP1-047], the IC50 amounted to 2.15e-08 M.

Turning to `CN1C(=O)[C@@H](NC(=O)c2cn(Cc3ccccc3)nn2)CSc2cc3c(ccn3C)cc21` [RIP1-048], the IC50 was determined as 5.1e-09 M.

`CN1C(=O)[C@@H](NC(=O)c2cnc(Cc3ccccc3)[nH]2)CSc2cc3c(ccn3C)cc21` [RIP1-050]: the IC50 is 4.92e-07 M.

Turning to `CN1C(=O)[C@@H](NC(=O)c2cnnn2Cc2ccccc2)CSc2cc3[nH]ccc3cc21` [RIP1-051], the IC50 was over 2e-06 M.

For `CN1C(=O)[C@@H](NC(=O)c2cnnn2Cc2ccccc2)CSc2cc3c(ccn3C)cc21` [RIP1-052], the IC50 is over 2e-06 M.

Regarding `CN1C(=O)[C@@H](NC(=O)c2cncn2Cc2ccccc2)CSc2cc3c(ccn3C)cc21` [RIP1-054], the IC50 is over 2e-06 M.

With `CN1C(=O)[C@@H](NC(=O)c2cn(Cc3ccccc3)cn2)CSc2cc3c(ccn3C)cc21` [RIP1-055], the IC50 turned out to be 2.29e-09 M.

In the case of `Cc1ccc(Cc2cc(C(=O)N[C@H]3CSc4cc5c(ccn5C)cc4N(C)C3=O)nn2C)cc1` [RIP1-056], the IC50 came out at 4.15e-08 M.

In the case of `Cc1ccc(Cc2cc(C(=O)N[C@H]3CSc4cc5c(ccn5C)cc4N(C)C3=O)n(C)n2)cc1` [RIP1-057], the IC50 was over 2e-06 M.

In the case of `CN1C(=O)[C@@H](NC(=O)c2nnn(Cc3ccccc3)n2)CSc2cc3c(ccn3C)cc21` [RIP1-058], the IC50 was 2.53e-10 M.

On to `Cc1nc2cc3c(cc2[nH]1)OC[C@H](NC(=O)c1cnn(Cc2ccccc2)c1)C(=O)N3C` [RIP1-062], for which the IC50 was over 2e-06 M.

Consider `Cc1nc2cc3c(cc2[nH]1)OC[C@H](NC(=O)c1cn(Cc2ccccc2)nn1)C(=O)N3C` [RIP1-063], for which the IC50 was 4.57e-08 M.

As for `Cc1nc2cc3c(cc2[nH]1)OC[C@H](NC(=O)c1cnnn1Cc1ccccc1)C(=O)N3C` [RIP1-064], the IC50 is over 2e-06 M.

Take `Cc1nc2cc3c(cc2[nH]1)OC[C@H](NC(=O)c1coc(Cc2ccccc2)n1)C(=O)N3C` [RIP1-065]: the IC50 was over 2e-06 M.

Consider `Cc1nc2cc3c(cc2[nH]1)OC[C@H](NC(=O)c1cccc(Cc2ccccc2)c1)C(=O)N3C` [RIP1-066], for which the IC50 came out at 6.7e-07 M.

For `Cc1nc2cc3c(cc2[nH]1)OC[C@H](NC(=O)c1nnc(Cc2ccccc2)o1)C(=O)N3C` [RIP1-070], the IC50 was found to be 2.15e-06 M.

Regarding `Cc1nc2cc3c(cc2[nH]1)OC[C@H](NC(=O)c1nnn(Cc2ccccc2)n1)C(=O)N3C` [RIP1-071], the IC50 is 1.71e-08 M.

Regarding `Cc1ccc(Cc2cc(C(=O)N[C@H]3COc4cc5[nH]c(C)nc5cc4N(C)C3=O)nn2C)cc1` [RIP1-072], the IC50 was 9.65e-08 M.

Take `Cc1ccc(Cc2cc(C(=O)N[C@H]3COc4cc5[nH]c(C)nc5cc4N(C)C3=O)n(C)n2)cc1` [RIP1-073]: the IC50 is over 2e-06 M.

Turning to `CN1C(=O)[C@@H](NC(=O)c2cnn(Cc3ccccc3)c2)COc2cc3[nH]c(=O)[nH]c3cc21` [RIP1-074], the IC50 is over 2e-06 M.

As to `CN1C(=O)[C@@H](NC(=O)c2nnn(Cc3ccccc3)n2)COc2cc3[nH]c(=O)[nH]c3cc21` [RIP1-075], the IC50 was 4.73e-10 M.

Regarding `CN1C(=O)[C@@H](NC(=O)c2nc(Cc3ccccc3)n[nH]2)COc2cc3[nH]c(=O)[nH]c3cc21` [RIP1-076], the IC50 was over 2e-06 M.

With `CN1C(=O)[C@@H](NC(=O)c2cc(Cc3ccccc3)on2)COc2cc3[nH]c(C(F)(F)F)nc3cc21` [RIP1-077], the IC50 is 1.68e-08 M.

Take `CN1C(=O)[C@@H](NC(=O)c2cn(Cc3ccccc3)nn2)COc2cc3[nH]c(C(F)(F)F)nc3cc21` [RIP1-078]: the IC50 stood at 3.11e-08 M.

Regarding `CN1C(=O)[C@@H](NC(=O)c2cnc(Cc3ccccc3)o2)COc2cc3[nH]c(C(F)(F)F)nc3cc21` [RIP1-079], the IC50 was over 2e-06 M.

On to `CN1C(=O)[C@H](NC(=O)c2cc(Cc3ccccc3)on2)COc2cc3c(ccn3C)cc21` [RIP1-080], for which the IC50 is over 2e-06 M.

`CN1C(=O)[C@H](NC(=O)c2nnc(Cc3ccccc3)o2)COc2cc3c(ccn3C)cc21` [RIP1-081]: the IC50 was over 2e-06 M.

Regarding `CN1C(=O)[C@H](NC(=O)c2cnn(Cc3ccccc3)c2)COc2cc3c(ccn3C)cc21` [RIP1-082], the IC50 was over 2e-06 M.
